Source: PubChem BioAssay (NCI)
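How tested: cells in 96-well plates exposed to compound for 48 hours at five concentrations. GI50: concentration for 50% inhibition of growth. TGI: total growth inhibition.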

What was measured:
Assay in all cases: inhibition of tumour cell growth, NCI panel, 48 h
NCI-H460 lung = tested on: NCI-H460 lung
EKVX NSCLC = tested on: EKVX NSCLC
NCI-H226 lung = tested on: NCI-H226 lung
NCI-H23 lung = tested on: NCI-H23 lung
HCT-15 colon = tested on: HCT-15 colon
OVCAR-5 ovarian = tested on: OVCAR-5 ovarian
HCC-2998 colon = tested on: HCC-2998 colon
IGROV1 ovarian = tested on: IGROV1 ovarian
SW-620 colon = tested on: SW-620 colon
SK-OV-3 ovarian = tested on: SK-OV-3 ovarian
U251 CNS = tested on: U251 CNS

| Structure (SMILES) | TGI (NCI-H460 lung) | TGI (EKVX NSCLC) | TGI (NCI-H226 lung) | TGI (NCI-H23 lung) | TGI (HCT-15 colon) | TGI (OVCAR-5 ovarian) | TGI (HCC-2998 colon) | TGI (IGROV1 ovarian) | TGI (SW-620 colon) | TGI (SK-OV-3 ovarian) | TGI (U251 CNS) | GI50 (NCI-H460 lung) | GI50 (EKVX NSCLC) | GI50 (NCI-H23 lung) | GI50 (HCT-15 colon) | GI50 (OVCAR-5 ovarian) | GI50 (IGROV1 ovarian) | GI50 (SW-620 colon) | GI50 (U251 CNS) |
| --- | --- | --- | --- | --- | --- | --- | --- | --- | --- | --- | --- | --- | --- | --- | --- | --- | --- | --- | --- |
| N#C[C@H](OC1OC(COC2OC(CO)C(O)C(O)C2O)C(O)C(O)C1O)c1ccccc1 (stereo partly specified) | > 250 µM | > 250 µM | > 250 µM | > 250 µM | > 250 µM | > 250 µM | > 250 µM | > 250 µM | > 250 µM | > 250 µM | > 250 µM |  |  |  |  |  |  |  |  |
| O=C(Nc1nc2ccc([N+](=O)[O-])cc2s1)C(=O)C(C(=O)c1ccccc1F)C1OC(=O)c2ccccc21 (stereo unspecified) | > 100 µM | 73.4 µM |  | > 100 µM | > 100 µM | > 100 µM | 84.2 µM | > 100 µM | > 100 µM | 93.7 µM | 41.3 µM |  |  |  |  |  |  |  |  |
| CCCNC(=O)C(C)C1CCC2(C)C=CC(=O)C(C)=C2C1O (stereo unspecified) | > 100 µM | > 100 µM | > 100 µM | > 100 µM | > 100 µM | > 100 µM | > 100 µM | > 100 µM | > 100 µM | > 100 µM | > 100 µM |  |  |  |  |  |  |  |  |
| CCCc1c(-c2ccccc2)[nH]c2ccccc2c1=O | > 100 µM | > 100 µM | > 100 µM | > 100 µM | > 100 µM | > 100 µM | 65.4 µM | > 100 µM | > 100 µM | > 100 µM | > 100 µM |  |  |  |  |  |  |  |  |
| CCN(CC)c1ccc2cc(C(=O)Nc3ccc4[nH]c(C(=O)N5C[C@@H](CCl)c6c5cc(OC(=O)Nc5ccccc5)c5[nH]cc(C)c65)cc4c3)oc2c1 |  |  |  | > 1000 µM | > 1000 µM | 633 µM | > 1000 µM | > 1000 µM | > 1000 µM |  | 235 µM | 39.4 µM | 448 µM | 230 µM | 539 µM | 264 µM | 914 µM | 207 µM | 92.7 µM |
| O=C1C(Cl)=C(Nc2ccc(S(=O)(=O)O)cc2)C(=O)c2ccccc21 | > 100 µM | 52.5 µM | 61.9 µM | > 100 µM | > 100 µM | > 100 µM | > 100 µM | > 100 µM | 51.1 µM |  | > 100 µM |  |  |  |  |  |  |  |  |
| O=c1ssc(=Nc2ccccc2)n1-c1ccccc1 | > 100 µM | > 100 µM | 46.5 µM | 50.2 µM | 35 µM | > 100 µM | > 100 µM |  | 51.8 µM | > 100 µM | 50 µM |  |  |  |  |  |  |  |  |
| C=CC1(NC(=O)c2ccccc2)CCC(C(C)(C)C)CC1 (stereo unspecified) | > 92.3 µM | > 83.2 µM | > 71.6 µM | > 85 µM | > 85 µM | > 100 µM | > 100 µM | > 100 µM | > 84.4 µM | > 100 µM | 53.8 µM |  |  |  |  |  |  |  |  |
| Nc1ccn(C2C=C(CO)C(O)C2O)c(=O)c1 (stereo unspecified) | > 625 µM |  | > 625 µM |  | > 625 µM |  | > 625 µM | > 625 µM | > 625 µM | > 625 µM |  |  |  |  |  |  |  |  |  |
| COc1nc(=O)n(COC(CO)CN2C(=O)c3ccccc3C2=O)cc1Cc1cccc(OCc2ccccc2)c1 (stereo unspecified) |  | > 100 µM | 54.2 µM | > 100 µM | > 100 µM |  | 43 µM | 58.8 µM | > 100 µM | 90.6 µM | 51.8 µM |  |  |  |  |  |  |  |  |
| CN(C)CCCN1c2ccccc2Sc2ccc3ccccc3c21 | 7.66 µM | 23.9 µM | 19 µM | 28.2 µM | 19.2 µM | 24.7 µM | 3.04 µM | 23.4 µM | 22.6 µM | 27.5 µM | 20 µM |  |  |  |  |  |  |  |  |
| OCCNCCN1CCN(CCCN2c3ccccc3Sc3ccc(C(F)(F)F)cc32)CC1 | 44.7 µM | 52.3 µM | 49.9 µM | 51 µM | 37.3 µM | 43.5 µM | 44.7 µM | > 100 µM | 35.3 µM | 77.9 µM | 35.8 µM |  |  |  |  |  |  |  |  |
| O=C(O)c1cc2c(ncc3c(=O)n(-c4ccccc4)[nH]c32)s1 | > 100 µM | > 100 µM | > 100 µM | > 100 µM | > 100 µM | > 100 µM | > 100 µM | > 100 µM | > 100 µM | > 100 µM | > 100 µM |  |  |  |  |  |  |  |  |
| CC(=O)Oc1cc2c(cc1OC(C)=O)OCC(c1ccccc1)C2 (stereo unspecified) | 57.9 µM | 57.8 µM | 48.5 µM | 77.6 µM | 56.4 µM | 61.7 µM | 65.5 µM | 74.1 µM | 18.5 µM | 72.3 µM | 29.5 µM |  |  |  |  |  |  |  |  |
| Cc1ccc(C2OC(COCc3ccc(Cl)cc3)C(OCc3ccc(Cl)cc3)C2O)cc1 (stereo unspecified) | 14.9 µM | 40 µM | 38.5 µM | 40.3 µM | > 100 µM | > 100 µM | 72.7 µM | 35.5 µM | 49.5 µM | 15.3 µM | 34.2 µM |  |  |  |  |  |  |  |  |
| O=C1OC2(CC1C1(O)C3CC4CC(C3)CC1C4)C1CC3CC(C1)CC2C3 (stereo unspecified) | > 100 µM |  | > 100 µM | > 100 µM | > 100 µM |  |  | > 100 µM | > 100 µM |  |  |  |  |  |  |  |  |  |  |
